{"source": "patent US11369584B2", "about": "“Andrographolide derivatives and method of using the same for treatment or prevention of fibrosis” (Zhengzhou University, priority 2017, dated 2022)", "key": {"[1]": {"test_system": "human proximal tubular epithelial cells HK-2", "experiment": "TGF-β1-induced conversion of HK-2 cells to mesenchymal cells (morphological observation)", "format": "cell-based", "details": "TGF-β1 5 ng/mL, 48 h, test concentrations 0.08-[…]", "method": "Human proximal tubular epithelial cells HK-2 (provided by the China Center for Type Culture Collection) were used to study the in vitro anti-renal fibrosis effect of the compounds of the disclosure in comparison with andrographolide (AD). HK-2 cells were cultured in DMEM-F12 medium containing 10% (V/V) fetal bovine serum, 100 μg/mL streptomycin, and 100 IU/mL penicillin respectively, and then incubated in an incubator at 5% CO2 and 37° C., humidified atmosphere. HK-2 cells in logarithmic growth phase were digested with 0.25% (w/v) trypsin and 0.02% EDTA (W/V), and diluted into 5.0×10^6/mL cell suspension with DMEM-F12 medium containing 10% (v/v) fetal bovine serum. After each 96-well plate was filled with 200 μL cell suspension, the plates were placed in an incubator for 24 h in order to generate a single layer of cells. The original medium was discarded, and the cells were washed twice with PBS, and the medium without serum was added. After 24 h of re-synchronized, 200 μL of DMEM-F12 medium containing different concentrations of the test compound and the stimulating factor TGF-β1 (5 ng/mL) was added. Each treatment was repeated in 4 wells and control group was set up. After 48 h of incubation, the cells were photographed under a microscope."}, "[2]": {"test_system": "SD rats with liver fibrosis induced by CCl4", "experiment": "CCl4-induced liver fibrosis in SD rats", "format": "in vivo", "details": "ELISA", "method": "SD rats were fed ad libitum for 3 days, and then randomly divided into normal group and model group. Subcutaneous injection of 40% CCl4 of soybean oil to the rats of model group for the first time. Following an initial dose of 4 mL/kg, each subsequent dose was 2 mL/kg, 2 times every week. The corresponding volumes of soy oil were injected subcutaneously to the normal group. After 4 weeks of modeling, except for the normal group, other rats were weighed individually and then randomly divided into eight rats per group. The dosages of andrographolide, oxymatrine, silibinin and the compound A of the disclosure were both 20 mg/kg, and the doses of other compounds were the same molar mass as compound A, and the model group and the normal group were given an equal amount of 0.5% CMC-Na. During the 5th and 6th weeks of the experiment, modeling and administration were carried out simultaneously, furthermore, the modeling was stopped at the 7th and 8th weeks, while the administered continued to carry out. Drugs were administrated by gavage on an empty stomach in the morning every day, and were given daily for 10 days followed by 1-day break. The bedding of the rats should be replaced at the first 8 hours of the last gavage, strictly fasting with nothing but water. After 1 h of administration, an anesthetic of 3% pentobarbital sodium (2 mL/kg) was intraperitoneally injected. […] Image-Pro Plus software performed semi-quantitative analysis of fibrosis histology on the photographs of Masson stained sections. […] The expression of α-SMA (a marker of the degree of HSC activation) in liver tissue was evaluated by immunohistochemistry, and the positive expression was quantified using Image-Pro Plus, the results were shown in FIGS. 6 and 7. Data were processed and analyzed using SPSS 17.0 statistical software. Data were expressed as mean±standard deviation (X±S); There were significant differences between groups when P<0.05. The levels of LN, C-I, PC-III and C-IV in the serum of the animals were determined by ELISA using the compound H of the disclosure as a representative. Data were processed and analyzed using SPSS 17.0 statistical software. Data were expressed as mean±standard deviation (X±S); There were significant differences between groups when P<0.05. The level of IL-6 and TNF-α in the serum of the animal was determined by ELISA using the compound H of the disclosure as a representative, the results were shown in FIGS. 20 and 21. Data were processed and analyzed using SPSS 17.0 statistical software. Data were expressed as mean±standard deviation (X±S); There were significant differences between groups when P<0.05. The level of SOD and MDA in the liver tissue of the animal was determined by the compound H of the disclosure, the results were shown in FIGS. 22 and 23. […]"}}, "data": [{"molecule": "C=C1CC[C@@H]2[C@](C)(CO)[C@H](O)CC[C@@]2(C)[C@@H]1C/C=C1/C(=O)OC[C@H]1O", "note": "[AD, andrographolide]", "values": [{"measurement": "Inhibitory effect", "setting": "[1]; Table 1A", "result": "Medium"}, {"measurement": "Optimal effective dose range", "setting": "[1]; Table 1A", "result": "0.31 to 1.25", "unit": "µM"}, {"measurement": "Inhibitory effect", "setting": "[1]; Table 1B", "result": "Medium"}, {"measurement": "Optimal effective dose range", "setting": "[1]; Table 1B", "result": "0.31 to 1.25", "unit": "µM"}, {"measurement": "content of C-I in liver tissue", "setting": "[2]", "result": "significantly reduced"}, {"measurement": "content of C-IV in the serum", "setting": "[2]", "result": "significantly reduced"}]}, {"molecule": "O=C1CCC[C@@H]2[C@H]3CCC[N+]4([O-])CCC[C@@H](CN12)[C@@H]34", "note": "(some centres unmarked) [Oxymatrine, oxymatrine]", "values": [{"measurement": "content of C-I in liver tissue", "setting": "[2]", "result": "significantly reduced"}, {"measurement": "content of C-IV in the serum", "setting": "[2]", "result": "significantly reduced"}]}]}
